Laboratory results as given in patent US20260226068A1, “IMIDAZOTRIAZINE IL-17A MODULATORS AND USES THEREOF” (DICE ALPHA, INC., priority 2023, published 2026).

What was measured:
[1] = target: T1, IL-17A/A (Homo sapiens, UniProt Q16552); assay: IL-17A/A HEK-Blue cell assay (SEAP reporter); format: cell-based; conditions: HEK-Blue IL-17A reporter cells, IL17A/A 5 ng/mL, 20 hours, SEAP read at A630; read-out: HEK-Blue IL17AA (IC50 for IL-17A/A inhibition)
T1 construct: purchased Genscript Z03228
T1 sequence (Q16552 24-155): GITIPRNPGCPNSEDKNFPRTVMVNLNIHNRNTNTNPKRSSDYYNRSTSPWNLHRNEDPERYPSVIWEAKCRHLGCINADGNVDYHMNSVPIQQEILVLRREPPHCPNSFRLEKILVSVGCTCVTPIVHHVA

[2] = target: T2, IL-17A/F (Homo sapiens, UniProt Q16552+Q96PD4); assay: IL-17A/F HEK-Blue cell assay (SEAP reporter); format: cell-based; conditions: HEK-Blue IL-17A reporter cells, IL17A/F 5 ng/mL, 20 hours, SEAP read at A630; read-out: HEK-Blue IL17AF (IC50 for IL-17A/F inhibition)
T2 construct: purchased R&D Systems
T2 sequence (Q16552 24-155): T1 sequence (Q16552 24-155)
T2 sequence (Q96PD4 31-163): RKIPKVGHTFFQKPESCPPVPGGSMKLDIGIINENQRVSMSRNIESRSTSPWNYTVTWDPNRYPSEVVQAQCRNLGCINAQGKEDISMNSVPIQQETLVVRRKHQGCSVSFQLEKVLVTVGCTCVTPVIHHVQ

SMILES	IC50 [1]	IC50 [2]
CC(C)n1nccc1C(=O)N[C@H](c1cn2nc(C[C@H]3C[C@@H](C(F)(F)F)CNC3=O)c(C3CCOCC3)nc2n1)[C@H]1CCCC(F)(F)C1 [Compound 211, N-((1S)—((S)-3,3-difluorocyclohexyl)(2-(((3R,5R)-2-oxo-5-(trifluoromethyl)piperidin-3-yl)methyl)-3-(tetrahydro-2H-pyran-4-yl)imidazo[1,2-b][1,2,4]triazin-6-yl)methyl)-1-isopropyl-1H-pyrazole-5-carboxamide]	< 0.1 µM	< 0.1 µM
CCn1nccc1C(=O)N[C@H](c1cn2nc(C[C@H]3C[C@@H](C(F)(F)F)CNC3=O)c(C3(F)CCOCC3)nc2n1)C1CCC(F)(F)CC1 [Compound 212, N-((1S)-(4,4-difluorocyclohexyl)(3-(4-fluorotetrahydro-2H-pyran-4-yl)-2-(((3R,5R)-2-oxo-5-(trifluoromethyl)piperidin-3-yl)methyl)imidazo[1,2-b][1,2,4]triazin-6-yl)methyl)-1-ethyl-1H-pyrazole-5-carboxamide]	< 0.1 µM	0.1 to 1 µM
CCn1nccc1C(=O)N[C@H](c1cn2nc(C[C@H]3C[C@@H](C(F)(F)F)CNC3=O)c(CC3CCCOC3)nc2n1)C1CCC(F)(F)CC1 (stereo partly drawn) [Compound 213, N-((1S)-(4,4-difluorocyclohexyl)(2-(((3R,5R)-2-oxo-5-(trifluoromethyl)piperidin-3-yl)methyl)-3-((tetrahydro-2H-pyran-3-yl)methyl)imidazo[1,2-b][1,2,4]triazin-6-yl)methyl)-1-ethyl-1H-pyrazole-5-carboxamide]	< 0.1 µM	0.1 to 1 µM
CCn1nccc1C(=O)N[C@H](c1cn2nc(C[C@H]3C[C@@H](C(F)(F)F)CNC3=O)c(C(C)C(F)(F)F)nc2n1)C1CCC(F)(F)CC1 (stereo partly drawn) [Compound 214, N-((1S)-(4,4-difluorocyclohexyl)(2-(((3R,5R)-2-oxo-5-(trifluoromethyl)piperidin-3-yl)methyl)-3-(1,1,1-trifluoropropan-2-yl)imidazo[1,2-b][1,2,4]triazin-6-yl)methyl)-1-ethyl-1H-pyrazole-5-carboxamide]	< 0.1 µM	0.1 to 1 µM
C=CCCc1nc2nc([C@@H](NC(=O)c3ccnn3CC)C3CCC(F)(F)CC3)cn2nc1C[C@H]1C[C@@H](C(F)(F)F)CNC1=O [Compound 215, N-((1S)-(3-(but-3-en-1-yl)-2-(((3R,5R)-2-oxo-5-(trifluoromethyl)piperidin-3-yl)methyl)imidazo[1,2-b][1,2,4]triazin-6-yl)(4,4-difluorocyclohexyl)methyl)-1-ethyl-1H-pyrazole-5-carboxamide]	< 0.1 µM	0.1 to 1 µM
CCn1nccc1C(=O)N[C@H](c1cn2nc(C[C@H]3C[C@@H](C(F)(F)F)CNC3=O)c(C(C)(C)F)nc2n1)C1CCC(F)(F)CC1 [Compound 216, N-((1S)-(4,4-difluorocyclohexyl)(3-(2-fluoropropan-2-yl)-2-(((3R,5R)-2-oxo-5-(trifluoromethyl)piperidin-3-yl)methyl)imidazo[1,2-b][1,2,4]triazin-6-yl)methyl)-1-ethyl-1H-pyrazole-5-carboxamide]	< 0.1 µM	0.1 to 1 µM
Cn1nccc1C(=O)N[C@H](c1cn2nc(C[C@H]3C[C@@H](C(F)(F)F)CNC3=O)c(C3CCOCC3)nc2n1)[C@H]1CC[C@H](C)CC1 [Compound 218, 1-methyl-N—((S)-((1r,4S)-4-methylcyclohexyl)(2-(((3R,5R)-2-oxo-5-(trifluoromethyl)piperidin-3-yl)methyl)-3-(tetrahydro-2H-pyran-4-yl)imidazo[1,2-b][1,2,4]triazin-6-yl)methyl)-1H-pyrazole-5-carboxamide]	< 0.1 µM	< 0.1 µM
CCn1nccc1C(=O)N[C@H](c1cn2nc(C[C@H]3C[C@H](C)CNC3=O)c(C3CCOCC3)nc2n1)C1CCC(F)(F)CC1 [Compound 219]	< 0.1 µM	0.1 to 1 µM
CCn1nccc1C(=O)N[C@H](c1cn2nc(C[C@@H]3C[C@H](C)CNC3=O)c(C3CCOCC3)nc2n1)C1CCC(F)(F)CC1 [Compound 220]	< 0.1 µM	0.1 to 1 µM
CCc1nonc1C(=O)N[C@H](c1cn2nc(C[C@H]3C[C@@H](C(F)(F)F)CNC3=O)c(C3CCOCC3)nc2n1)C1CCCCC1 [Compound 221, N—((S)-cyclohexyl(2-(((3R,5R)-2-oxo-5-(trifluoromethyl)piperidin-3-yl)methyl)-3-(tetrahydro-2H-pyran-4-yl)imidazo[1,2-b][1,2,4]triazin-6-yl)methyl)-4-ethyl-1,2,5-oxadiazole-3-carboxamide]	< 0.1 µM	0.1 to 1 µM
CCn1nccc1C(=O)N[C@H](c1cn2nc(C[C@@H]3CC(F)(F)CNC3=O)c(C3CCOCC3)nc2n1)C1CCC(F)(F)CC1 [Compound 222]	< 0.1 µM	> 1 µM
CCn1nccc1C(=O)N[C@H](c1cn2nc(C[C@@H]3CC(F)(F)CNC3=O)c(C3CCOCC3)nc2n1)[C@H]1CC[C@H](C)CC1 [Compound 223]	< 0.1 µM	0.1 to 1 µM
CCn1nccc1C(=O)N[C@H](c1cn2nc(C[C@H]3C[C@@H](C(F)(F)F)CNC3=O)c(C3CCCN(CCOC)C3)nc2n1)C1CCC(F)(F)CC1 (stereo partly drawn) [Compound 226, N-((1S)-(4,4-difluorocyclohexyl)(3-(1-(2-methoxyethyl)piperidin-3-yl)-2-(((3R,5R)-2-oxo-5-(trifluoromethyl)piperidin-3-yl)methyl)imidazo[1,2-b][1,2,4]triazin-6-yl)methyl)-1-ethyl-1H-pyrazole-5-carboxamide]	< 0.1 µM	> 1 µM
Cn1ncnc1C(=O)N[C@H](c1cn2nc(C[C@H]3C[C@@H](C(F)(F)F)CNC3=O)c(C3CCOCC3)nc2n1)C1CCC(F)(F)CC1 [Compound 228]	< 0.1 µM	> 1 µM
CCn1nccc1C(=O)N[C@H](c1cn2nc(C[C@H]3C[C@@H](C(F)(F)F)CNC3=O)c(C3CCCCN3C)nc2n1)C1CCC(F)(F)CC1 (some centres unmarked) [Compound 230]	0.1 to 1 µM	> 1 µM
CCn1nccc1C(=O)N[C@H](c1cn2nc(C[C@H]3C[C@@H](C(F)(F)F)CNC3=O)c(C3CCS(=O)(=O)CC3)nc2n1)C1CCC(F)(F)CC1 [Compound 234, N—((S)-(4,4-difluorocyclohexyl)(3-(1,1-dioxidotetrahydro-2H-thiopyran-4-yl)-2-(((3R,5R)-2-oxo-5-(trifluoromethyl)piperidin-3-yl)methyl)imidazo[1,2-b][1,2,4]triazin-6-yl)methyl)-1-ethyl-1H-pyrazole-5-carboxamide]	< 0.1 µM	0.1 to 1 µM
CCn1nccc1C(=O)N[C@H](c1cn2nc(C[C@H]3C[C@@H](C(F)(F)F)CNC3=O)c(N3CCOC[C@H]3C)nc2n1)C1CCC(F)(F)CC1 [Compound 236]	< 0.1 µM	0.1 to 1 µM
CCn1nccc1C(=O)N[C@H](c1cn2nc(C[C@H]3C[C@@H](C(F)(F)F)CNC3=O)c(N(C)CCOC)nc2n1)C1CCC(F)(F)CC1 [Compound 237, N—((S)-(4,4-difluorocyclohexyl)(3-((2-methoxyethyl)(methyl)amino)-2-(((3R,5R)-2-oxo-5-(trifluoromethyl)piperidin-3-yl)methyl)imidazo[1,2-b][1,2,4]triazin-6-yl)methyl)-1-ethyl-1H-pyrazole-5-carboxamide]	< 0.1 µM	0.1 to 1 µM
CCn1nccc1C(=O)N[C@H](c1cn2nc(C[C@H]3C[C@@H](C(F)(F)F)CNC3=O)c(N3CCN(C(=O)OC(C)(C)C)[C@@H](C)C3)nc2n1)C1CCC(F)(F)CC1 [Compound 238, tert-butyl (S)-4-(6-((S)-(4,4-difluorocyclohexyl)(1-ethyl-1H-pyrazole-5-carboxamido)methyl)-2-(((3R,5R)-2-oxo-5-(trifluoromethyl)piperidin-3-yl)methyl)imidazo[1,2-b][1,2,4]triazin-3-yl)-2-methylpiperazine-1-carboxylate]	0.1 to 1 µM	0.1 to 1 µM
CCn1nccc1C(=O)N[C@H](c1cn2nc(C[C@H]3C[C@@H](C(F)(F)F)CNC3=O)c(N3CCN[C@@H](C)C3)nc2n1)C1CCC(F)(F)CC1 [Compound 239, N—((S)-(4,4-difluorocyclohexyl)(3-((S)-3-methylpiperazin-1-yl)-2-(((3R,5R)-2-oxo-5-(trifluoromethyl)piperidin-3-yl)methyl)imidazo[1,2-b][1,2,4]triazin-6-yl)methyl)-1-ethyl-1H-pyrazole-5-carboxamide]	0.1 to 1 µM	> 1 µM
CCn1nccc1C(=O)N[C@H](c1cn2nc(C[C@H]3C[C@@H](C(F)(F)F)CNC3=O)c(C3CCOC4(C3)CN(C(=O)OC(C)(C)C)C4)nc2n1)C1CCC(F)(F)CC1 (stereo partly drawn) [Compound 240, tert-butyl 8-(6-((S)-(4,4-difluorocyclohexyl)(1-ethyl-1H-pyrazole-5-carboxamido)methyl)-2-(((3R,5R)-2-oxo-5-(trifluoromethyl)piperidin-3-yl)methyl)imidazo[1,2-b][1,2,4]triazin-3-yl)-5-oxa-2-azaspiro[3.5]nonane-2-carboxylate]	0.1 to 1 µM	0.1 to 1 µM
CCn1nccc1C(=O)N[C@H](c1cn2nc(C[C@H]3C[C@@H](C(F)(F)F)CNC3=O)c(N3C[C@@H](C)O[C@H](C)C3)nc2n1)C1CCC(F)(F)CC1 [Compound 241, N—((S)-(4,4-difluorocyclohexyl)(3-((2R,6R)-2,6-dimethylmorpholino)-2-(((3R,5R)-2-oxo-5-(trifluoromethyl)piperidin-3-yl)methyl)imidazo[1,2-b][1,2,4]triazin-6-yl)methyl)-1-ethyl-1H-pyrazole-5-carboxamide]	< 0.1 µM	< 0.1 µM
